Source: ChEMBL document CHEMBL1142849, “Synthesis and in vitro and in vivo antimycobacterial activity of isonicotinoyl hydrazones” (Bioorg Med Chem Lett, 2005)
Converted amounts (≈) assume the structure as drawn.

Legend:
[1] = test system: Mycobacterium tuberculosis; assay: In vitro inhibitory concentration against Mycobacterium tuberculosis [H37Rv stain]; format: functional, organism-based
[2] = test system: Mycobacterium tuberculosis; assay: In vitro minimal inhibitory concentration against Mycobacterium tuberculosis [H37Rv stain]; format: functional
[3] = test system: Mycobacterium tuberculosis; assay: Log CFU in lungs of mice infected with H37Rv stain of Mycobacterium tuberculosis after administration at 25 mg/Kg; format: functional, Lung

In the case of `C/C(=N/NC(=O)c1ccncc1)c1cccc(CN2CCN(c3ccc(F)cc3)CC2)c1O`, the IC50 [1] is reported as > 14 µM and the MIC [2] is reported as 0.87 µM (≈ 0.389 µg/mL).

For `C/C(=N/NC(=O)c1ccncc1)c1cccc(CN(Cc2ccccc2)Cc2ccccc2)c1O`, the IC50 [1] was > 13.5 µM and the MIC [2] was 3.36 µM (≈ 1.56 µg/mL).

`CCn1cc(C(=O)O)c(=O)c2cc(F)c(N3CCN(Cc4cccc(/C(C)=N\NC(=O)c5ccncc5)c4O)C(C)C3)c(F)c21` (centres undefined) was tested, and the IC50 [1] was > 10.1 µM and the MIC [2] was 1.26 µM (≈ 0.779 µg/mL).

`C/C(=N/NC(=O)c1ccncc1)c1cccc(CN2CCN(c3ccccn3)CC2)c1O` was tested, and the IC50 [1] was > 14.5 µM and the MIC [2] was 0.9 µM (≈ 0.387 µg/mL).

For `C/C(=N/NC(=O)c1ccncc1)c1cccc(CN2CCCCC2)c1O`, the IC50 [1] was > 17.7 µM and the MIC [2] was 4.43 µM (≈ 1.56 µg/mL).

With `C/C(=N/NC(=O)c1ccncc1)c1cccc(CN(c2ccccc2)c2ccccc2)c1O` the IC50 [1] was > 14.3 µM and the MIC [2] was 3.57 µM (≈ 1.56 µg/mL).

`C/C(=N/NC(=O)c1ccncc1)c1cccc(CN2CCNCC2)c1O` was tested, and the “Log CFU” value [3] was 6.08, the IC50 [1] was > 17.7 µM and the MIC [2] was 0.56 µM (≈ 0.198 µg/mL).

In the case of `CCCCN(CCCC)Cc1cccc(/C(C)=N\NC(=O)c2ccncc2)c1O`, the IC50 [1] is reported as > 15.8 µM and the MIC [2] is reported as 3.93 µM (≈ 1.56 µg/mL).

With `C/C(=N/NC(=O)c1ccncc1)c1cccc(CN2CCCC2)c1O` the IC50 [1] was > 18.5 µM and the MIC [2] was 4.61 µM (≈ 1.56 µg/mL).

In the case of `C/C(=N/NC(=O)c1ccncc1)c1cccc(CN2CCN(C)CC2)c1O`, the IC50 [1] is reported as > 17.2 µM and the MIC [2] is reported as 8.61 µM (≈ 3.16 µg/mL).

For `CCN(CC)Cc1cccc(/C(C)=N\NC(=O)c2ccncc2)c1O`, the IC50 [1] was > 18.4 µM and the MIC [2] was 2.29 µM (≈ 0.78 µg/mL).

With `C/C(=N/NC(=O)c1ccncc1)c1cccc(CN2CCN(c3cc4c(cc3F)c(=O)c(C(=O)O)cn4C3CC3)CC2)c1O` the IC50 [1] was > 10.4 µM and the MIC [2] was 1.3 µM (≈ 0.778 µg/mL).

For `C/C(=N/NC(=O)c1ccncc1)c1cccc(CN2CCOCC2)c1O`, the IC50 [1] was > 17.6 µM and the MIC [2] was 2.2 µM (≈ 0.78 µg/mL).

`C/C(=N/NC(=O)c1ccncc1)c1cccc(CN2CCN(Cc3ccccc3)CC2)c1O` was tested, and the IC50 [1] was > 14.1 µM and the MIC [2] was 0.88 µM (≈ 0.39 µg/mL).

In the case of `C/C(=N/NC(=O)c1ccncc1)c1cccc(CN(C)C)c1O`, the IC50 [1] is reported as > 20 µM and the MIC [2] is reported as 2.49 µM (≈ 0.778 µg/mL).

For `NNC(=O)c1ccncc1` [ISONIAZID], the “Log CFU” value [3] was 6.38, the IC50 [1] was > 45.6 µM and the MIC [2] was 2.04 µM (≈ 0.28 µg/mL).
